Tests used:
[1] = biological target: recombinant human EGFR L858R/C797S double mutant protein (Homo sapiens (Human), UniProt P00533, C797S/L858R); assay: Biological Activity Assay B: biochemical assay against EGFR L858R/C797S protein (EGFR LR/CS)
Outline: (§1)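 IC50 values were fitted with a 4-parameter model to reaction slopes taken from 90 kinetic reads spaced 120 s apart. The Phosphosens sensor/ATP working solution was 40 uM/4 mM, and compound was dosed as 16-point dilutions at 2.5% final DMSO.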

[2] = biological target: recombinant human EGFR exon 19 deletion/C797S double mutant protein (Homo sapiens (Human), UniProt P00533, C797S/DEL746-750); assay: Biological Activity Assay C: biochemical assay against EGFR exon 19 deletion/C797S protein (EGFR d19/CS)
recombinant human EGFR exon 19 deletion/C797S double mutant protein, sequence (P00533 other isoform, or with tags, fused parts or gaps C797S/del 1-668/del 746-750 limits assumed): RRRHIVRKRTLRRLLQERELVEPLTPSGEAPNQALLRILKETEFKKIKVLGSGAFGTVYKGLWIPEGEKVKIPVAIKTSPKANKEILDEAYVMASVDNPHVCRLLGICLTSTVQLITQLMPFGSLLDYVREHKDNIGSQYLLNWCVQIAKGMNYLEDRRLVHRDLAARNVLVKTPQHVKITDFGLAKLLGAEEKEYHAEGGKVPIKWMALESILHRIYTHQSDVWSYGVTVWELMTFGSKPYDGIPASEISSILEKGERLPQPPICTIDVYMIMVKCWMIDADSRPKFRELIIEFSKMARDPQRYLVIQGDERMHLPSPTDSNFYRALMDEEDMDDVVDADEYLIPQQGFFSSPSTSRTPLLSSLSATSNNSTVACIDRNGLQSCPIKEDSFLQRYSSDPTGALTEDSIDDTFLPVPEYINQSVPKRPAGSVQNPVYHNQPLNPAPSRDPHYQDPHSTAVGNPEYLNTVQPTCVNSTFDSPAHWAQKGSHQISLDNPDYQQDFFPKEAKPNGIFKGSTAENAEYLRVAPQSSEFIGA
Outline: as §1

BaF3_EGFR LR/CS cells = assay: Biological Activity Assay D: BaF3 cell proliferation assay, EGFR L858R/C797S mutant (BaF3 LR/CS); type: cell-based; settings: Ba/F3 EGFR; BaF3_EGFR LR/CS cells, ~72 hours, CellTiter-Glo; read-out: BaF3 LR/CS IC50
BaF3_EGFR d19/CS cells = assay: Biological Activity Assay D: BaF3 cell proliferation assay, EGFR exon 19 deletion/C797S (BaF3 d19/CS); type: cell-based; settings: Ba/F3 EGFR; BaF3_EGFR d19/CS cells, ~72 hours, CellTiter-Glo; read-out: BaF3 d19/CS IC50
Ba/F3_EGFR WT cells = assay: Biological Activity Assay D: BaF3 cell proliferation assay, EGFR wild-type (BaF3 WT); type: cell-based; settings: Ba/F3 EGFR; Ba/F3_EGFR WT cells, ~72 hours, CellTiter-Glo; read-out: BaF3 WT IC50

recombinant human EGFR L858R/C797S double mutant protein, sequence (P00533 25-1210 C797S/L858R): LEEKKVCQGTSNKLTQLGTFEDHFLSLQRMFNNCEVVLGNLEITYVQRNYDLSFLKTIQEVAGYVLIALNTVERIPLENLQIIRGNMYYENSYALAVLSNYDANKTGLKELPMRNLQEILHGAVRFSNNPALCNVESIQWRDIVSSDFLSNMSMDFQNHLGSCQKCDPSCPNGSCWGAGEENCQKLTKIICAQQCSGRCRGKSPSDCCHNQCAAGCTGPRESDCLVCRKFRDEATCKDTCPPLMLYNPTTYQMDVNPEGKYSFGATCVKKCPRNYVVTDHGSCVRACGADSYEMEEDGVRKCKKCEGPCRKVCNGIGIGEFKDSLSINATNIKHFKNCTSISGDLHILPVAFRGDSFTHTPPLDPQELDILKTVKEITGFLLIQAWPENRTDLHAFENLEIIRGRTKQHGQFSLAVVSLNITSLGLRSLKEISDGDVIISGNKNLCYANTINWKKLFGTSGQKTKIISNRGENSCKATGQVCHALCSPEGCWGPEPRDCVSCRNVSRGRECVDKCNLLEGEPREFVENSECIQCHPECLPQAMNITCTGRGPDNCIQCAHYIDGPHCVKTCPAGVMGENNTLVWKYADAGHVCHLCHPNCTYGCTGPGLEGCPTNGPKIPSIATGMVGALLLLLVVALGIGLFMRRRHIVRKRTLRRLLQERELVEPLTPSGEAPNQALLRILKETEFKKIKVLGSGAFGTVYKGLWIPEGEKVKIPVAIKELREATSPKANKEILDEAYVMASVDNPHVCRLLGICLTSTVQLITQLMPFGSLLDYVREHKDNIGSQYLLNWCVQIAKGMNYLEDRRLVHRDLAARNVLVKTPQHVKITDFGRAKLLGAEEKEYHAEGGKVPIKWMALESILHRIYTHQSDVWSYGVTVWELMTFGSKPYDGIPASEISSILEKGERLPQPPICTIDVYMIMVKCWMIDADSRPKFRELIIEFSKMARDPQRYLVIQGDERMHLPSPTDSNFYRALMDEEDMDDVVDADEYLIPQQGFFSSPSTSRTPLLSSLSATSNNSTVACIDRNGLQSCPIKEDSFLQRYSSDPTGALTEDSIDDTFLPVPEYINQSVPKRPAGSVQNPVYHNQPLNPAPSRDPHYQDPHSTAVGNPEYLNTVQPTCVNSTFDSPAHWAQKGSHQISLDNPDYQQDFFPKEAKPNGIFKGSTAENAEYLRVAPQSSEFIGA

IC50 [1] [nM]	IC50 [2] [nM]	IC50 (BaF3_EGFR LR/CS cells) [nM]	IC50 (BaF3_EGFR d19/CS cells) [nM]	IC50 (Ba/F3_EGFR WT cells) [nM]	SMILES
0.099	0.121	0.63	0.547	15.4	OCCCn1cc(-c2ncnc3[nH]c(-c4ccccc4)cc23)c(-c2ccc(F)cc2)n1 [Example 9, 3-[3-(4-Fluorophenyl)-4-(6-phenyl-7H-pyrrolo[2,3-d]pyrimidin-4-yl)-1H-pyrazol-1-yl]propan-1-ol]
13	7.72	726	810	3490	N#CCn1cc(-c2ncnc3oc(-c4ccccc4)nc23)c(-c2ccc(F)cc2)n1 [Example 25, [3-(4-fluorophenyl)-4-(2-phenyl[1,3]oxazolo[5,4-d]pyrimidin-7-yl)-1H-pyrazol-1-yl]acetonitrile]
2.64	1.99	116	111	10200	CS(=O)(=O)Cn1cc(-c2ncnc3oc(-c4ccccc4)cc23)c(-c2ccc(F)cc2)n1 [Example 79, 4-{3-(4-fluorophenyl)-1-[(methanesulfonyl)methyl]-1H-pyrazol-4-yl}-6-phenylfuro[2,3-d]pyrimidine]
10.8	4.16	493	885	17800	OCCCCn1nc(-c2ccc(F)cc2)c(-c2ncnc3[nH]c(-c4ccccc4)nc23)n1 [Example 28, 4-[4-(4-fluorophenyl)-5-(8-phenyl-9H-purin-6-yl)-2H-1,2,3-triazol-2-yl]butan-1-ol]
0.35	0.2	21.1	16.5	161	CS(=O)(=O)N1CC[C@H](n2cc(-c3ncnc4oc(-c5ccccc5)cc34)c(-c3ccc(F)cc3)n2)C1 (single isomer, unassigned) [Example 102]
4.06	4.22	562	486	6410	Fc1ccc(-c2nn(CCCC(F)F)cc2-c2ncnc3oc(-c4ccccc4)nc23)cc1 [Example 26, 7-[1-(4,4-difluorobutyl)-3-(4-fluorophenyl)-1H-pyrazol-4-yl]-2-phenyl[1,3]oxazolo[5,4-d]pyrimidine]
3.58	4.58	224	184	5490	CS(=O)(=O)n1ncc(-c2ncnc3oc(-c4ccccc4)cc23)c1-c1ccc(F)cc1 [Example 56, 4-[5-(4-fluorophenyl)-1-(methanesulfonyl)-1H-pyrazol-4-yl]-6-phenylfuro[2,3-d]pyrimidine]
1.22	0.64	301	238	3740	CC(C)(O)Cn1nc(-c2ccc(F)cc2)c(-c2ncnc3oc(-c4ccccc4)cc23)n1 [Example 88, 1-[4-(4-fluorophenyl)-5-(6-phenylfuro[2,3-d]pyrimidin-4-yl)-2H-1,2,3-triazol-2-yl]-2-methylpropan-2-ol]

Source: patent US20250034159A1, “INHIBITORS OF EPIDERMAL GROWTH FACTOR RECEPTOR” (ORIC Pharmaceuticals, Inc., priority 2021, published 2025)
